These compounds were tested against T1, human capsaicin receptor (Homo sapiens, UniProt Q8NER1) (assay: Calcium mobilization assay (Example 6)). Details: concentration required to provide a 50% decrease in the fluorescence response of cells exposed to one IC50 of capsaicin.
T1 construct: A cDNA encoding full length human capsaicin receptor recited in U.S. Pat. No. 6,482,611 was subcloned in the plasmid pBK-CMV; expressed in transfected cells
Assay type: cell-based
Method in brief: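 HEK293 clonal lines stably expressing full-length human capsaicin receptor, Fluo-3 AM loaded in KRH buffer pH 7.4. Compounds (final 1-5 μM) preincubated 0.5-6 h at room temperature in the dark, then capsaicin added at its predetermined IC50 concentration. FLIPR calcium signal at 30-60 s; IC50 = antagonist concentration giving 50% decrease.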

T1 sequence (Q8NER1 whole entry): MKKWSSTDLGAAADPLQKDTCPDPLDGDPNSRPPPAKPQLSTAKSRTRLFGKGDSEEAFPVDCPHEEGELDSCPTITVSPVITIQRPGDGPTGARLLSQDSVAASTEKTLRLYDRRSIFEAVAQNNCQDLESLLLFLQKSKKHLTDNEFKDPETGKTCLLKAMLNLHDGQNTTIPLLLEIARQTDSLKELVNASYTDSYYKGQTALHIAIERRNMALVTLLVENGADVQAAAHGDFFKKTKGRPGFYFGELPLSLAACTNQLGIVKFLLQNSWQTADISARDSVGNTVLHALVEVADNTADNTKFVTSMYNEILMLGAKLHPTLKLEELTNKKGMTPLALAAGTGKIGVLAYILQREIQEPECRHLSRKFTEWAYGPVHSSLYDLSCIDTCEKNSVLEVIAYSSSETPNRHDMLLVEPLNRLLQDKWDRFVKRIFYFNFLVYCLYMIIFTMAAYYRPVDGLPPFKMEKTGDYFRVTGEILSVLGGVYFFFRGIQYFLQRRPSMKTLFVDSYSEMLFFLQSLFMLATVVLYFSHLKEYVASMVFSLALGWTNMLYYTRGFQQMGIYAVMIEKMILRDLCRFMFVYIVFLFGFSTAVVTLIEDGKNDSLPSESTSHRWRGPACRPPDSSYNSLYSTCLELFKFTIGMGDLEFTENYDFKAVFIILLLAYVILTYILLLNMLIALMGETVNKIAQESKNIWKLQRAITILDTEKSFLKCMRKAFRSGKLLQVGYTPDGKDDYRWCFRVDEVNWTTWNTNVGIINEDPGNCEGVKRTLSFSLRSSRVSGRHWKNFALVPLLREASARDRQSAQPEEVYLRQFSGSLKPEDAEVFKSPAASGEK

IC50, ≤ 1000 nM:
CCCc1cc(Nc2ccc(C(F)(F)F)cn2)c2ccc(-c3ncccc3C(F)(F)F)nc2n1 [Compound 114, 2-propyl-7-[3-(trifluoromethyl)pyridin-2-yl]-N-[5-(trifluoromethyl)pyridin-2-yl]-1,8-naphthyridin-4-amine]
CCCc1cc(Nc2ccc(C(C)=O)cn2)c2ccc(-c3ncccc3C(F)(F)F)nc2n1 [Compound 115, 1-[6-({2-propyl-7-[3-(trifluoromethyl)pyridin-2-yl]-1,8-naphthyridin-4-yl}amino)pyridin-3-yl]ethanone]
CC(=O)c1ccc(Nc2cc(C(C)C)nc3nc(-c4ncccc4C(F)(F)F)ccc23)nc1 [Compound 116, 1-[6-({2-isopropyl-7-[3-(trifluoromethyl)pyridin-2-yl]-1,8-naphthyridin-4-yl}amino)pyridin-3-yl]ethanone]
CCCc1cc(Nc2ccc(C(C)(C)O)cn2)c2ccc(-c3ncccc3C(F)(F)F)nc2n1 [Compound 117, 2-[6-({2-propyl-7-[3-(trifluoromethyl)pyridin-2-yl]-1,8-naphthyridin-4-yl}amino)pyridin-3-yl]propan-2-ol]
CC(C)c1cc(Nc2ccc(C(C)(C)O)cn2)c2ccc(-c3ncccc3C(F)(F)F)nc2n1 [Compound 118, 2-[6-({2-isopropyl-7-[3-(trifluoromethyl)pyridin-2-yl]-1,8-naphthyridin-4-yl}amino)pyridin-3-yl]propan-2-ol]
COC(C)c1cc(Nc2ccc(C(F)(F)F)cn2)c2ccc(-c3ncccc3C(F)(F)F)nc2n1 (stereo not drawn) [Compound 119, 2-(1-methoxyethyl)-7-[3-(trifluoromethyl)pyridin-2-yl]-N-[5-(trifluoromethyl)pyridin-2-yl]-1,8-naphthyridin-4-amine]
COC(C)c1cc(Nc2ccc(C(C)=O)cn2)c2ccc(-c3ncccc3C(F)(F)F)nc2n1 (stereo not drawn) [Compound 120, 1-[6-({2-(1-methoxyethyl)-7-[3-(trifluoromethyl)pyridin-2-yl]-1,8-naphthyridin-4-yl}amino)pyridin-3-yl]ethanone]
COC(C)c1cc(Nc2ccc(C(C)(C)O)cn2)c2ccc(-c3ncccc3C(F)(F)F)nc2n1 (stereo not drawn) [Compound 121, 2-[6-({2-(1-methoxyethyl)-7-[3-(trifluoromethyl)pyridin-2-yl]-1,8-naphthyridin-4-yl}amino)pyridin-3-yl]propan-2-ol]
CCCc1cc(Nc2ccc(Cl)cn2)c2ccc(-c3ncccc3C(F)(F)F)nc2n1 [Compound 122, N-(5-chloropyridin-2-yl)-2-propyl-7-[3-(trifluoromethyl)pyridin-2-yl]-1,8-naphthyridin-4-amine]
CCCc1cc(Nc2ccc(S(C)(=O)=O)cn2)c2ccc(-c3ncccc3C(F)(F)F)nc2n1 [Compound 123, N-[5-(methylsulfonyl)pyridin-2-yl]-2-propyl-7-[3-(trifluoromethyl)pyridin-2-yl]-1,8-naphthyridin-4-amine]
CN1CCCC(c2cc(Nc3ccc(C(F)(F)F)cn3)c3ccc(-c4ncccc4C(F)(F)F)nc3n2)C1 (stereo not drawn) [Compound 124, 2-(1-methylpiperidin-3-yl)-7-[3-(trifluoromethyl)pyridin-2-yl]-N-[5-(trifluoromethyl)pyridin-2-yl]-1,8-naphthyridin-4-amine]
N#Cc1cc(Nc2ccc(C(F)(F)F)cn2)c2ccc(-c3ncccc3C(F)(F)F)nc2n1 [Compound 125, 7-[3-(trifluoromethyl)pyridin-2-yl]-4-{[5-(trifluoromethyl)pyridin-2-yl]amino}-1,8-naphthyridine-2-carbonitrile]
NC(=O)c1cc(Nc2ccc(C(F)(F)F)cn2)c2ccc(-c3ncccc3C(F)(F)F)nc2n1 [Compound 126, 7-[3-(trifluoromethyl)pyridin-2-yl]-4-{[5-(trifluoromethyl)pyridin-2-yl]amino}-1,8-naphthyridine-2-carboxamide]
CCCc1cc(Nc2ccc(CC)cn2)c2ccc(-c3ncccc3C(F)(F)F)nc2n1 [Compound 128, N-(5-ethylpyridin-2-yl)-2-propyl-7-[3-(trifluoromethyl)pyridin-2-yl]-1,8-naphthyridin-4-amine]
FC(F)(F)c1ccc(Nc2cc(N3CCOCC3)nc3nc(-c4ncccc4C(F)(F)F)ccc23)nc1 [Compound 129, 2-morpholin-4-yl-7-[3-(trifluoromethyl)pyridin-2-yl]-N-[5-(trifluoromethyl)pyridin-2-yl]-1,8-naphthyridin-4-amine]
CC(C)CNc1cc(Nc2ccc(C(F)(F)F)cn2)c2ccc(-c3ncccc3C(F)(F)F)nc2n1 [Compound 130, N~2~-isobutyl-7-[3-(trifluoromethyl)pyridin-2-yl]-N~4~-[5-(trifluoromethyl)pyridin-2-yl]-1,8-naphthyridine-2,4-diamine]
FC(F)(F)c1cnc(Nc2ccnc3nc(-c4ncccc4C(F)(F)F)ccc23)cn1 [Compound 131, N-[5-(trifluoromethyl)pyrazin-2-yl]-7-[3-(trifluoromethyl)pyridin-2-yl]-1,8-naphthyridin-4-amine]
FC(F)(F)c1cnc(Nc2ccnc3nc(-c4ncccc4C(F)(F)F)ccc23)nc1 [Compound 132, 7-[3-(trifluoromethyl)pyridin-2-yl]-N-[5-(trifluoromethyl)pyrimidin-2-yl]-1,8-naphthyridin-4-amine]
CC(=O)c1cc(Nc2ccc(C(F)(F)F)cn2)c2ccc(-c3ncccc3C(F)(F)F)nc2n1 [Compound 133, 1-(7-[3-(trifluoromethyl)pyridin-2-yl]-4-{[5-(trifluoromethyl)pyridin-2-yl]amino}-1,8-naphthyridin-2-yl)ethanone]
Cc1cccnc1-c1ccc2c(Nc3ccc(C(F)(F)F)cn3)ccnc2n1 [Compound 135, 7-(3-methylpyridin-2-yl)-N-[5-(trifluoromethyl)pyridin-2-yl]-1,8-naphthyridin-4-amine]
FC(F)(F)c1ccc(Nc2ccnc3nc(-c4ncccc4Cl)ccc23)nc1 [Compound 136, 7-(3-chloropyridin-2-yl)-N-[5-(trifluoromethyl)pyridin-2-yl]-1,8-naphthyridin-4-amine]
Cc1cccnc1-c1ccc2c(Nc3ncc(C(F)(F)F)cn3)ccnc2n1 [Compound 137, 7-(3-methylpyridin-2-yl)-N-[5-(trifluoromethyl)pyrimidin-2-yl]-1,8-naphthyridin-4-amine]
FC(F)(F)c1cnc(Nc2ccnc3nc(-c4ncccc4Cl)ccc23)cn1 [Compound 138, 7-(3-chloropyridin-2-yl)-N-[5-(trifluoromethyl)pyrazin-2-yl]-1,8-naphthyridin-4-amine]
FC(F)(F)c1cccnc1-c1ccc2c(Nc3ccc(Cl)cn3)ccnc2n1 [Compound 139, N-(5-chloropyridin-2-yl)-7-[3-(trifluoromethyl)pyridin-2-yl]-1,8-naphthyridin-4-amine]
Cc1ccc(Nc2ccnc3nc(-c4ncccc4C(F)(F)F)ccc23)nc1 [Compound 140, N-(5-methylpyridin-2-yl)-7-[3-(trifluoromethyl)pyridin-2-yl]-1,8-naphthyridin-4-amine]
CC(=O)c1ccc(Nc2ccnc3nc(-c4ncccc4C(F)(F)F)ccc23)nc1 [Compound 141, 1-[6-({7-[3-(trifluoromethyl)pyridin-2-yl]-1,8-naphthyridin-4-yl}amino)pyridin-3-yl]ethanone]
FC(F)(F)c1ccc(Nc2ccnc3nc(-c4ncccc4C(F)(F)F)ccc23)cn1 [Compound 142, 7-[3-(trifluoromethyl)pyridin-2-yl]-N-[6-(trifluoromethyl)pyridin-3-yl]-1,8-naphthyridin-4-amine]
CCc1ccc(Nc2ccnc3nc(-c4ncccc4C(F)(F)F)ccc23)nc1 [Compound 143, N-(5-ethylpyridin-2-yl)-7-[3-(trifluoromethyl)pyridin-2-yl]-1,8-naphthyridin-4-amine]
Cc1cccnc1-c1ccc2c(Nc3cnc(C(F)(F)F)cn3)ccnc2n1 [Compound 144, 7-(3-methylpyridin-2-yl)-N-[5-(trifluoromethyl)pyrazin-2-yl]-1,8-naphthyridin-4-amine]
FC(F)(F)c1cnc(Nc2ccnc3nc(-c4ncccc4Cl)ccc23)nc1 [Compound 145, 7-(3-chloropyridin-2-yl)-N-[5-(trifluoromethyl)pyrimidin-2-yl]-1,8-naphthyridin-4-amine]

Source: US7488740B2, “Substituted quinolin-4-ylamine analogues” (Neurogen Corporation, priority 2003, dated 2009)
